In brackets after ≈: the same amount, converted by molar mass. Where two headings read alike, the source gives them in different places.
Assays:
Lewis lung carcinoma = experiment: Anti-tumor action to Lewis lung carcinoma (primary tumor weight and metastasis); format: in vivo, BDF1 mice; conditions: Mus musculus, po, 504 h
Text: Lewis lung carcinoma (1×10^5 cells) was transplanted under skin of right ear of BDF1 mice (age of about 5 weeks), and each of testing compounds was orally dosed 10 times from 1st to 10th day after the transplantation. At 21st day after the transplantation, the mice were killed to measure a weight of the primarly tumor and to extract a lung. The lung was fixed in a conventional manner to count a number of metastasis on cancerous cells with use of a stereomicroscope having a low magnification. An anti-tumor action of each compound was expressed with an inhibition in weight of the primarly tumor and an inhibition of the metastasis.

L-1210 leukemia = experiment: Anti-tumor action to L-1210 leukemia; format: in vivo, BDF1 female mice; conditions: Mus musculus, L1210, oral; for ILS at 250 mg/kg/day: 250 mg/kg/day × 3 (1st, 5th, 9th day); for ILS at 500 mg/kg/day: 500 mg/kg/day × 3 (1st, 5th, 9th day)
Procedure: L-1210 leukemia cell (1×10^5 cells) was transplanted in a abdominal cavity of BDF1 female mice (20-21 g, age of about 5 weeks), and each of testing compounds was orally dosed in 250 mg/kg or 500 mg/kg at 1st, 5th and 9th day after the transplantation to check days of life of the mice. [formula]

KB cells = experiment: Suppression of KB cell proliferation in vitro; format: cell-based; conditions: Homo sapiens, 72 h, 3 days exposure, Trypan Blue dye-exclusion, read-out: KB IC50 (50% inhibition density to tumor cell proliferation)
Procedure: In a cultivation device (5% CO2, 37° C.), KB cells (1×10^4 cells) were cultivated for 24 hours in a culture tube with 1 ml of Eagle culture medium added 10% ox serum, the used culture medium was thrown away to change with a fresh culture medium (0.9 ml), and then 0.1 ml of a similar culture fluid containing each testing compound prepared by the process as described in the Examples was added to cultivate the same for further 3 days. Thereafter, living cells were dyed with Tripan Blue and measured same through a dye-exclusion method.
A control was treated in a manner similar to the above, except that a culture fluid containing no compound of the invention was added.
50% inhibition density (IC50) to the tumor cell proliferation was decided through the tests between the testing group and the control group to obtain results as shown in following Table 1.

Colon-38 carcinoma = experiment: Anti-tumor action to Colon-38 carcinoma; format: in vivo, BDF1 mice; conditions: oral, tumor weight at 28th day
Procedure: 0.02 ml of 10(W/V)% cell suspension prepared from a solid cancer cell (Colon-38 carcinoma) were transplanted under skin of BDF1 mice (20-21 g, age of about 5 weeks), and each of testing compounds was orally dosed to the mice at 1st, 5th and 9th day after the transplantation. A major and minor axes of the cancerous tumor were measured at 11th, 14th, 21st, 25th and 28th day after the transplantation to calcurate volume of the tumor in accordance with the following.
At 28th day from the transplantation, the mice were killed and each of the cancerous tumors was extracted to measure its weight and to determine an inhibitation ratio in comparison with a non-treated control group.

B-16 melanoma = experiment: Anti-tumor action to B-16 melanoma; format: in vivo, BDF1 female mice; conditions: oral, tumor weight at 21st day; for inhibition in vivo at 100 mg/kg/day: 100 mg/kg/day × 3; for inhibition in vivo at 200 mg/kg/day: 200 mg/kg/day × 3; for inhibition in vivo at 400 mg/kg/day: 400 mg/kg/day × 3
Text: B-16 melanoma (1×10^5 cells) was transplanted under skin of BDF1 female mice (age of about 5 weeks), and each of testing compounds was orally dosed at 1st, 5th and 9th day after the transplantation. At 21st day after the transplantation, the mice were killed to measure a weight of the cancerous tumor and to finally determine an inhibition ratio.

[1] = Mus musculus, B16, 504 h, 125 mg/kg/day × 3, read-out: B-16 melanoma Inhibition ratio
[2] = Mus musculus, B16, 504 h, read-out: B-16 melanoma Inhibition ratio

SMILES	ILS at 250 mg/kg/day (L-1210 leukemia; read-out: L-1210 ILS) [%]	ILS at 250 mg/kg/day (L-1210 leukemia; read-out: L-1210 Judgement) [%]	ILS at 500 mg/kg/day (L-1210 leukemia; read-out: L-1210 ILS) [%]	ILS at 500 mg/kg/day (L-1210 leukemia; read-out: L-1210 Judgement) [%]	IC50 (KB cells) [µg/mL]	B-16 melanoma Inhibition ratio (B-16 melanoma; 125 mg/kg/day × 3) [%]	B-16 melanoma Inhibition ratio (B-16 melanoma; 250 mg/kg/day × 3) [%]	other results
CCCCCCCC[Si](C)(C)CCSCCNC(=O)n1cc(F)c(=O)[nH]c1=O [Example 4, N-[2-[[2-(Dimethyloctylsilyl)ethyl]thio]ethyl]-5-fluoro-3,4-dihydro-2,4-dioxo-1(2H)-pyrimidinecarboxamide]	12	< 25	38	25 to 50	20 (≈ 46.3 µM)	–	–	inhibition in vivo at 32 mg/kg/day (Lewis lung carcinoma; 32 mg/kg/day × 10, 21st day, read-out: Inhibition Ratio weight LLC): 4.6%; inhibition in vivo at 32 mg/kg/day (Lewis lung carcinoma; 32 mg/kg/day × 10, lung, 21st day, read-out: Inhibition Ratio metastasis): 76.2%; inhibition in vivo at 64 mg/kg/day (Lewis lung carcinoma; 64 mg/kg/day × 10, 21st day, read-out: Inhibition Ratio weight LLC): 18%; inhibition in vivo at 64 mg/kg/day (Lewis lung carcinoma; 64 mg/kg/day × 10, lung, 21st day, read-out: Inhibition Ratio metastasis): 97.5%; colon-38 Inhibition ratio (Colon-38 carcinoma; 345 mg/kg/day × 3): 80.0%
C[Si](CCSCCNC(=O)n1cc(F)c(=O)[nH]c1=O)(c1ccccc1)c1ccccc1 [Example 7, 5-Fluoro-3,4-dihydro-N-[2-[[2-(methyldiphenylsilyl)ethyl]thio]ethyl]-2,4-dioxo-1(2H)-pyrimidinecarboxamide]	11	< 25	11	< 25	4 (≈ 8.74 µM)	–	–	inhibition in vivo at 34 mg/kg/day (Lewis lung carcinoma; 34 mg/kg/day × 10, 21st day, read-out: Inhibition Ratio weight LLC): 31%; inhibition in vivo at 34 mg/kg/day (Lewis lung carcinoma; 34 mg/kg/day × 10, lung, 21st day, read-out: Inhibition Ratio metastasis): 67.1%; inhibition in vivo at 68 mg/kg/day (Lewis lung carcinoma; 68 mg/kg/day × 10, 21st day, read-out: Inhibition Ratio weight LLC): 25%; inhibition in vivo at 68 mg/kg/day (Lewis lung carcinoma; 68 mg/kg/day × 10, lung, 21st day, read-out: Inhibition Ratio metastasis): 87.7%; inhibition in vivo at 366 mg/kg/day (Colon-38 carcinoma; Mus musculus, 672 h, 366 mg/kg/day × 3, read-out: colon-38 Inhibition ratio): 32.2%
CC(C)[Si](C)(C)CCSCCCNC(=O)n1cc(F)c(=O)[nH]c1=O [Example 9, 5-Fluoro-3,4-dihydro-N-[3-[[2-(isopropyldimethylsilyl)ethyl]thio]propyl]-2,4-dioxo-1(2H)-pyrimidinecarboxamide]	45	25 to 50	80	50 to 100	15 (≈ 39.9 µM)	17.6	19.4	colon-38 Inhibition ratio (Colon-38 carcinoma; 338 mg/kg/day × 3): 98.4%
CC(C)[Si](C)(C)CCCSCCCNC(=O)n1cc(F)c(=O)[nH]c1=O [Example 11, 5-Fluoro-3,4-dihydro-N-[3-[[3-(isopropyldimethylsilyl)propyl]thio]propyl]-2,4-dioxo-1(2H)-pyrimidinecarboxamide]	18	< 25	81	50 to 100	13 (≈ 33.4 µM)	32.8	45.7	colon-38 Inhibition ratio (Colon-38 carcinoma; 350 mg/kg/day × 3): 90.3%
CC(C)[Si](C)(C)CCCSCCNC(=O)n1cc(F)c(=O)[nH]c1=O [Example 12, 5-Fluoro-3,4-dihydro-N-[2-[[3-(isopropyldimethylsilyl)propyl]thio]ethyl]-2,4-dioxo-1(2H)-pyrimidinecarboxamide]	24	< 25	70	50 to 100	15 (≈ 39.9 µM)	–	–	inhibition in vivo at 125 mg/kg/day (B-16 melanoma; [1]): 34.2%; inhibition in vivo at 250 mg/kg/day (B-16 melanoma; Mus musculus, B16, 504 h, 250 mg/kg/day × 3, read-out: B-16 melanoma Inhibition ratio): 37.9%; inhibition in vivo at 338 mg/kg/day (Colon-38 carcinoma; Mus musculus, 672 h, 338 mg/kg/day × 3, read-out: colon-38 Inhibition ratio): 97.3%
CC(C)(C)[Si](C)(C)CCCSCCNC(=O)n1cc(F)c(=O)[nH]c1=O [Example 13, N-[2-[[3-(t-Butyldimethylsilyl)propyl]thio]ethyl]-5-fluoro-3,4-dihydro-2,4-dioxo-1(2H)-pyrimidinecarboxamide]	10	< 25	67	50 to 100	13 (≈ 33.4 µM)	–	43.1	inhibition in vivo at 125 mg/kg/day (B-16 melanoma; [1]): 38%; colon-38 Inhibition ratio (Colon-38 carcinoma; 311 mg/kg/day × 3): 81.0%
CC(C)(C)[Si](C)(C)CCCSCCCNC(=O)n1cc(F)c(=O)[nH]c1=O [Example 14, N-[3-[[3-(t-Butyldimethylsilyl)propyl]thio]propyl]-5-fluoro-3,4-dihydro-2,4-dioxo-1(2H)-pyrimidinecarboxamide]	19	< 25	68	50 to 100	–	55.2	46.3	colon-38 Inhibition ratio (Colon-38 carcinoma; 323 mg/kg/day × 3): 90.1%
CCCC[Si](C)(C)CCCSCCCNC(=O)n1cc(F)c(=O)[nH]c1=O [Example 15, N-[3-[[3-(Butyldimethylsilyl)propyl]thio]propyl]-5-fluoro-3,4-dihydro-2,4-dioxo-1(2H)-pyrimidinecarboxamide]	26	25 to 50	62	50 to 100	–	69.5	88.5	colon-38 Inhibition ratio (Colon-38 carcinoma; 323 mg/kg/day × 3): 92.3%
C[Si](C)(CCCSCCCNC(=O)n1cc(F)c(=O)[nH]c1=O)c1ccccc1 [Example 16, N-[3-[[3-(Dimethylphenylsilyl)propyl]thio]propyl]-5-fluoro-3,4-dihydro-2,4-dioxo-1(2H)-pyrimidinecarboxamide]	23	< 25	86	50 to 100	–	82.2	70.5	colon-38 Inhibition ratio (Colon-38 carcinoma; 339 mg/kg/day × 3): 97.9%
CCCC[Si](C)(C)CCSCCCNC(=O)n1cc(F)c(=O)[nH]c1=O [Example 17, N-[3-[[2-(Butyldimethylsilyl)ethyl]thio]propyl]-5-fluoro-3,4-dihydro-2,4-dioxo-1(2H)-pyrimidinecarboxamide]	–	–	–	–	–	–	–	inhibition in vivo at 100 mg/kg/day (B-16 melanoma; [2]): 54.3%; inhibition in vivo at 200 mg/kg/day (B-16 melanoma; [2]): 16.3%; inhibition in vivo at 400 mg/kg/day (B-16 melanoma; [2]): 34.8%; inhibition in vivo at 312 mg/kg/day (Colon-38 carcinoma; Mus musculus, 672 h, 312 mg/kg/day × 3, read-out: colon-38 Inhibition ratio): 97.4%
C[Si](C)(CCSCCCNC(=O)n1cc(F)c(=O)[nH]c1=O)c1ccccc1 [Example 18, N-[3-[[2-(Dimethylphenylsilyl)ethyl]thio]propyl]-5-fluoro-3,4-dihydro-2,4-dioxo-1(2H)-pyrimidinecarboxamide]	–	–	–	–	–	–	–	inhibition in vivo at 100 mg/kg/day (B-16 melanoma; [2]): 55.2%; inhibition in vivo at 200 mg/kg/day (B-16 melanoma; [2]): 46.7%; inhibition in vivo at 400 mg/kg/day (B-16 melanoma; [2]): 29.6%; inhibition in vivo at 328 mg/kg/day (Colon-38 carcinoma; Mus musculus, 672 h, 328 mg/kg/day × 3, read-out: colon-38 Inhibition ratio): 71.3%
